For assay [1], the system named is human colon cancer cell SW620. Kind of assay: MTT assay, growth of SW620 cells, compounds combined with CPT-11. Particulars: 205 nM CPT-11, 5 days, MTT. In kind it is cell-based. Here is the method:
(§1) SW620 cells were digested by trypsinase, centrifuged at 800 rpm for 5 minutes, the supernatant was discarded, resuspended with fresh medium (RPMI 1640 medium+10% FBS) and counted. The cells were seeded into 96-well cell culture plate with appropriate cell density and incubated overnight in a 37° C. 5% CO2 incubator. The stock solutions of the tested compound and the reference compound AZD0156 were serially diluted to 8 concentrations by DMSO at the ratios of 1:3 and 1:10, respectively, and the last concentration was negative control of DMSO (0 μM, the final concentration of DMSO was 1%). 5 μL of each concentration was added to 120 μL of medium (25 times diluted) and mixed by shaking. The overnight cells were taken and the culture medium was removed, 195 μL of fresh medium containing 205 nM CPT-11 was added to each well, and 5 μL of diluted medium containing the corresponding concentration of the tested sample was added respectively, and the culture plate was then placed in the 5% CO2 cell culture incubator at 37° C. for 5 days. After removing the original solution, 100 μL of fresh serum-free DMEM medium containing MTT (0.5 mg/mL) was added to each well, the culture was continued. After 4 hours, the original solution was removed, 100 μL of DMSO was added into each well, the 96-well plates were shaken away from light for 10 minutes and placed in a multi-function reader to read the absorbance at the wavelength of 552/630/690 nm. GraphPad Prism 6.0 was used to analyze the data. The inhibitory activity of compounds on cell proliferation was plotted based on cell viability and compound concentration. The IC50 value was fitted by a sigmoidal dose response curve equation Y=100/(1+10^(Log C−Log IC50)), where C was the concentration of compound.

The test system of assay [2] is human breast cancer cell MDA-MB-468. Kind of assay: MTT assay, growth of MDA-MB-468 cells. In kind it is cell-based. The following applies: single agent, 7 days, MTT. How it is done:
as §1, with “MDA-MB-468 cells” for “SW620 cells”, “1:10, respectively:” for “1:10, respectively, and”, “medium (PRMI 1640+5% FBS)” for “medium containing 205 nM CPT-11”, “for 7 days (On the fourth day, the medium containing drugs was removed and fresh medium containing drugs was added for continuous cultivation).” for “for 5 days.”

The target in the next assay is ATM enzyme (human) (Homo sapiens, UniProt Q13315). Kind of assay: ATM kinase assay (HTRF, phosphorylation of GST-cMyc-p53). In kind it is biochemical. Here is the method: ATM enzyme (human) was added to the reaction solution containing 30 nM GST-cMyc-p53 and 10 μM Mg/ATP, and then 50 times the concentration of the tested compound (or reference compound AZD0156) dissolved in 100% DMSO was added to the final concentration of 10 μM/1 μM/0.1 μM/0.01 μM. The reaction was initiated by the addition of a Mg/ATP mixture and incubation for 30 minutes at room temperature, the reaction was quenched by the addition of a stop solution containing EDTA. Finally, the detection buffer containing the d2-labeled anti-GST monoclonal antibody and the europium-labeled anti-phospho p53 (Ser15) antibody was added. The plate was then read in time resolved fluorescence mode and the homogeneous time resolved fluorescence (HTRF) signal was determined according to the equation: HTRF=10000×(Em665nm/Em620nm). Each compound sample was repeated in duplicate. The negative control contained all components except the ATM enzyme, and the positive control contained all components. All reactions were quenched by adding EDTA.
The compounds were serially diluted to 10 concentrations with 100% DMSO at the ratio of 1:3 and 1:10 (the last concentration was negative control of DMSO), then added to the ATM buffer and diluted to a final concentration of 10, 3, 1, 0.3, 0.1, 0.03, 0.01, 0.003, 0.001 and 0 μM, respectively. ATM kinase inhibition was detected by using the method described above. The curve equation for calculating IC50 value is as follows: […]
wherein, C is the concentration of compound and D is the slope factor. Table 2 summarizes the IC50 values of compounds inhibiting ATM kinase.

Where [3] appears, read: 0.5 h, detected concentration 1 μm.
[4] abbreviates: Homo sapiens, MDA-MB-468, 168 h.

Chain of ATM enzyme (human) (Q13315 whole entry): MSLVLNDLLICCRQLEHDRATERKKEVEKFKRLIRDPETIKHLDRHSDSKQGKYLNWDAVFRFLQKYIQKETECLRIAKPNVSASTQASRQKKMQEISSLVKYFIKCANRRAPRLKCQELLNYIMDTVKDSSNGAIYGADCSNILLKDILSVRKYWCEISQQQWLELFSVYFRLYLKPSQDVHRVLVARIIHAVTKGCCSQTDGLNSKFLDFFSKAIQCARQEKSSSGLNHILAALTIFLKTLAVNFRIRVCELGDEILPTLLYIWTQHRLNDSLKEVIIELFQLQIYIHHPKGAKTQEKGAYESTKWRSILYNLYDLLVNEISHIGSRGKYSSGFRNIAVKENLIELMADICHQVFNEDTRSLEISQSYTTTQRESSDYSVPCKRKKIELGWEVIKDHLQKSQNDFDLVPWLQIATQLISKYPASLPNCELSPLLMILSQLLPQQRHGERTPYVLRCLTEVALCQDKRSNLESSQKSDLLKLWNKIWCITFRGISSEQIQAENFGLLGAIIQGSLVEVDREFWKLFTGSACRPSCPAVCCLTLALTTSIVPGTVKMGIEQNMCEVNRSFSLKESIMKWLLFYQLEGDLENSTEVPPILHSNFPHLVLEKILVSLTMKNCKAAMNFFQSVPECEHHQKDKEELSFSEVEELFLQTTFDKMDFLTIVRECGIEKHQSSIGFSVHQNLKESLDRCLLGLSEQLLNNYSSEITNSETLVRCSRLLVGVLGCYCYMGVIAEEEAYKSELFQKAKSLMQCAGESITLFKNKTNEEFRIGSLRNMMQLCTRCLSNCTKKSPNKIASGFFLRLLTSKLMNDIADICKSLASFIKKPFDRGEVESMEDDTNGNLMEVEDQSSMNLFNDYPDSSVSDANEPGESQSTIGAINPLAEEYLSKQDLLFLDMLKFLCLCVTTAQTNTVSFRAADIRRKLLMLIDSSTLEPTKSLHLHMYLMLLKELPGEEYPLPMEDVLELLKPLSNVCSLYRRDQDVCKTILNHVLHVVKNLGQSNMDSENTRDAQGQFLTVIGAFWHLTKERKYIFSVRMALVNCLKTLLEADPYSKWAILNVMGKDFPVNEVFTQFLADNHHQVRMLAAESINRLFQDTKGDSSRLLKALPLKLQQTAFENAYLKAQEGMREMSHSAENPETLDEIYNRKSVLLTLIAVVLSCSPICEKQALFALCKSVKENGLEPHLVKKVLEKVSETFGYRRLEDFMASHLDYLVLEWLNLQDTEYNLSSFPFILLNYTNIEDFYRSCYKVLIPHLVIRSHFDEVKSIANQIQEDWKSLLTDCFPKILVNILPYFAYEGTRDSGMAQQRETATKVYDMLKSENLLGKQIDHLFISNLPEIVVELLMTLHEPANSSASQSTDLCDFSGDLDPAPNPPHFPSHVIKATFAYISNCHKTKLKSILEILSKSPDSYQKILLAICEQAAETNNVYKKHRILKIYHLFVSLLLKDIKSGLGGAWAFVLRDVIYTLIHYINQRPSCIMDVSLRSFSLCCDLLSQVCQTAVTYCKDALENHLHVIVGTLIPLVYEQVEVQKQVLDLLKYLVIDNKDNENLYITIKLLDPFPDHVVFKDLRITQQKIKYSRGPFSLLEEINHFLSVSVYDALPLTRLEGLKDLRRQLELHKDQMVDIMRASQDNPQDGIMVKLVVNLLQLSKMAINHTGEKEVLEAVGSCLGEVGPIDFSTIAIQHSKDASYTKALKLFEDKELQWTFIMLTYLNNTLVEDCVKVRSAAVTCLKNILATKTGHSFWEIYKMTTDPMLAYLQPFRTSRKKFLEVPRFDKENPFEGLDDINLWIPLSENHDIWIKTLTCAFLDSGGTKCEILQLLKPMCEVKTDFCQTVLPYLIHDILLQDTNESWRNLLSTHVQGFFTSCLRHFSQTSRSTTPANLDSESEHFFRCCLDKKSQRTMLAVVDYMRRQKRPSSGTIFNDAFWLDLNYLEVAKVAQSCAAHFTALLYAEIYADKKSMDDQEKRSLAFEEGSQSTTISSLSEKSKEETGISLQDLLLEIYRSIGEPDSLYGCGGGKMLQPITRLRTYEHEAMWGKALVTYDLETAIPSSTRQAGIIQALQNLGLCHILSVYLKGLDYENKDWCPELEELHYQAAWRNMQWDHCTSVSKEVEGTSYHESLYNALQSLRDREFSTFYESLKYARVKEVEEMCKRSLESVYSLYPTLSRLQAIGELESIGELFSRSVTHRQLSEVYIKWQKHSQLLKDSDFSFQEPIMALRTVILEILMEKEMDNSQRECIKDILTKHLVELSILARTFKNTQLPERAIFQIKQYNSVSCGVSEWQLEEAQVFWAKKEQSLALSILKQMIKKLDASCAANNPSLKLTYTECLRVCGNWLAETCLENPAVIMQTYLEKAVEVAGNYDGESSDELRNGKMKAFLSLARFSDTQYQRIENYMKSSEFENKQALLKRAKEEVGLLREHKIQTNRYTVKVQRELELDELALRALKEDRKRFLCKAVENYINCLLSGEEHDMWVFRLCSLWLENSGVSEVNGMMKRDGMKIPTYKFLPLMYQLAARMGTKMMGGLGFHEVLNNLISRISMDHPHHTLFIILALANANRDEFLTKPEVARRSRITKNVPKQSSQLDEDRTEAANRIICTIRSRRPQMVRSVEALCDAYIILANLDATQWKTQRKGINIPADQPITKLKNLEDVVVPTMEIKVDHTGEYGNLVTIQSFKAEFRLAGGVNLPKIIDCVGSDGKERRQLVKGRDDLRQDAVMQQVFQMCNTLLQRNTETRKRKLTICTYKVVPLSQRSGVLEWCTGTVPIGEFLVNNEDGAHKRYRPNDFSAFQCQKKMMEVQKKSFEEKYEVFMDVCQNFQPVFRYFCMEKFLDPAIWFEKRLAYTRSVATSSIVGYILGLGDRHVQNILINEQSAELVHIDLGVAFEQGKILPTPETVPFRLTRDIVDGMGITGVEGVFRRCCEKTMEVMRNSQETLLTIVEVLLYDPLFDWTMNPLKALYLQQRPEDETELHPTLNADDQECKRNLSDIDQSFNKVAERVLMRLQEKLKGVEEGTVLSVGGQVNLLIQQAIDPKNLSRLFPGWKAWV

Take “N,N-dimethyl-3-(2-(trifluoromethyl)-4-(942S,6R)-2,6-dimethylmorpholino)benzo[4,5]imidazo[1,2-a]pyridin-2-yl)phenoxy)propan-1-amine [Example 55]”: the half-inhibitory concentration (IC50) in assay [1] was 228 nM; in assay [2] it was 255 nM.

`C[C@@H]1CN(c2cccc3nc4ccc(-c5ccc(N6CCC(N(C)C)CC6)cc5)cn4c23)C[C@H](C)N1C` [Example 45, N,N-dimethyl-1-(4-(9-((3S,5R)-3,4,5-trimethylpiperazin-1-yl)benzo[4,5]imidazo[1,2-a]pyridin-2-yl)phenyl)piperidin-4-amine]: the IC50 in assay [1] (Homo sapiens, SW-620, 120 h) is over 500 nM; in assay [2] (setting [4]), 322 nM. The compound also yielded an inhibition at 1 µM against ATM enzyme (human) (setting [3]) of 100%.

With `CN(C)C1CCN(c2ccc(-c3ccc4nc5cccc(C6=CCOCC6)c5n4c3)cc2)CC1` [Example 39, N,N-dimethyl-1-(4-(9-(3,6-dihydro-2H-pyran-4-yl)benzo[4,5]imidazo[1,2-a]pyridin-2-yl)phenyl)piperidin-4-amine], in assay [1] (Homo sapiens, SW-620, 120 h), the 50% inhibitory concentration (IC50) was determined as 1510 nM. Further, the inhibition at 0.01 µM at ATM enzyme (human) (0.5 h, detected concentration 0.01 μm) turned out to be 17%. Further, at ATM enzyme (human) (0.5 h, detected concentration 0.1 μm), the inhibition at 0.1 µM turned out to be 62%. The compound also had an inhibition at 1 µM against ATM enzyme (human) (setting [3]) of 91%.

As for `CN(C)CCCOc1ccc(-c2ccc3nc4cccc(N5CCOCC5)c4n3c2)cc1` [Example 4, N,N-dimethyl-3-(4-(9-morpholinobenzo[4,5]imidazo[1,2-a]pyridin-2-yl)phenoxy)propan-1-amine], the IC50 in assay [1] (Homo sapiens, SW-620, 120 h) amounted to 5480 nM. Also, the inhibition at 1 µM against ATM enzyme (human) (setting [3]) is 74%.

In the case of `CN(C)CCCOc1ccc(-c2ccc3nc4cccc(N5CCN(C)CC5)c4n3c2)cc1` [Example 3, N,N-dimethyl-3-(4-(9-(4-methylpiperazin-1-yl)benzo[4,5]imidazo[1,2-a]pyridin-2-yl)phenoxy)propan-1-amine], the IC50 in assay [1] (Homo sapiens, SW-620, 120 h) was 563 nM; in assay [2] (setting [4]), 330 nM.

For the compound `C[C@@H]1CN(c2cccc3nc4ccc(-c5ccc(OCCCN(C)C)c(C(F)(F)F)c5)cn4c23)C[C@H](C)N1C` [Example 53, N,N-dimethyl-3-(2-(trifluoromethyl)-4-(9-((3S,5R)-3,4,5-trimethylpiperazin-1-yl)benzo[4,5]imidazo[1,2-a]pyridin-2-yl)phenoxy)propan-1-amine], the IC50 in assay [1] (Homo sapiens, SW-620, 120 h) was 162 nM. The compound also showed an inhibition at 1 µM on ATM enzyme (human) (setting [3]) of 100%.

For the compound `CN(C)CCCOc1ccc(-c2ccc3nc4cccc(OC5CCOCC5)c4n3c2)cn1` [Example 13, N,N-dimethyl-3-((5-(9-((tetrahydro-2H-pyran-4-yl)oxy)benzo[4,5]imidazo[1,2-a]pyridin-2-yl)pyridin-2-yl)oxy)propan-1-amine], the IC50 in assay [1] (Homo sapiens, SW-620, 120 h) amounted to 1570 nM. At ATM enzyme (human) (setting [3]), 1 µM produced 86% inhibition.

As to `CN(C)CCCOc1ccc(-c2ccc3nc4cccc(NC5CCOCC5)c4n3c2)cn1` [Example 14, N,N-dimethyl-3-((5-(9-(tetrahydro-2H-pyran-4-ylamino)benzo[4,5]imidazo[1,2-a]pyridin-2-yl)pyridin-2-yl)oxy)propan-1-amine], the IC50 in assay [1] (Homo sapiens, SW-620, 120 h) is over 10000 nM. In addition, the inhibition at 1 µM against ATM enzyme (human) (setting [3]) was 48%.

As for `CN(C)C1CCN(c2ccc(-c3ccc4nc5cccc(N6CCOCC6)c5n4c3)cc2)CC1` [Example 41, N,N-dimethyl-1-(4-(9-morpholinobenzo[4,5]imidazo[1,2-a]pyridin-2-yl)phenyl)piperidin-4-amine], the half-inhibitory concentration (IC50) in assay [1] (Homo sapiens, SW-620, 120 h) amounted to 3480 nM. Besides, at 1 µM the inhibition at ATM enzyme (human) (setting [3]) was 82%.

For `CN(C)C1CCN(c2ccc(-c3ccc4nc5cccc(C6=CCOCC6)c5n4c3)cn2)CC1` [Example 40, N,N-dimethyl-1-(5-(9-(3,6-dihydro-2H-pyran-4-yl)benzo[4,5]imidazo[1,2-a]pyridin-2-yl)pyridin-2-yl)piperidin-4-amine], the concentration for half-maximal inhibition (IC50) in assay [1] (Homo sapiens, SW-620, 120 h) was 2370 nM. The inhibition at 1 µM against ATM enzyme (human) (setting [3]) stood at 96%.

With `CN(C)CCCOc1ccc(-c2ccc3nc4cccc(CN5CCN(C)CC5)c4n3c2)cn1` [Example 11], the half-maximal inhibitory concentration (IC50) in assay [1] came out at 1040 nM. At ATM enzyme (human) (detected concentration 1 μm), the “inhibition(%) of ATM kinase” value is 63%.

As to `CN(C)CCCOc1ccc(-c2ccc3nc4cccc(C5=CCOCC5)c4n3c2)cc1` [Example 2, N,N-dimethyl-3-(4-(9-(3,6-dihydro-2H-pyran-4-yl)benzo[4,5]imidazo[1,2-a]pyridin-2-yl)phenoxy)propan-1-amine], in assay [1] (Homo sapiens, SW-620, 120 h), the half-inhibitory concentration (IC50) is 1660 nM. In addition, the inhibition at 1 µM on ATM enzyme (human) (setting [3]) was 81%.

Take `CN(C)CCCOc1ccc(-c2ccc3nc4cccc(N5CCCCC5)c4n3c2)cn1` [Example 5, N,N-dimethyl-3-((5-(9-(piperidin-1-yl)benzo[4,5]imidazo[1,2-a]pyridin-2-yl)pyridin-2-yl)oxy)propan-1-amine]: in assay [1] (Homo sapiens, SW-620, 120 h), the IC50 is over 10000 nM. Moreover, 1 µM produced 61% inhibition against ATM enzyme (human) (setting [3]).

`CN(C)CCCOc1ccc(-c2ccc3nc4cccc(N5CCOCC5)c4n3c2)cn1` [Example 6, N,N-dimethyl-3-((5-(9-morpholinobenzo[4,5]imidazo[1,2-a]pyridin-2-yl)pyridin-2-yl)oxy)propan-1-amine]: the half-inhibitory concentration (IC50) in assay [1] (Homo sapiens, SW-620, 120 h) turned out to be 2470 nM. Moreover, the inhibition at 1 µM on ATM enzyme (human) (setting [3]) was 77%.

For `CN(C)CCCOc1ccc(-c2ccc3nc4cccc(N5CCN(C)CC5)c4n3c2)cn1` [Example 7, N,N-dimethyl-3-((5-(9-(4-methylpiperazin-1-yl)benzo[4,5]imidazo[1,2-a]pyridin-2-yl)pyridin-2-yl)oxy)propan-1-amine], in assay [1] (Homo sapiens, SW-620, 120 h), the IC50 was over 10000 nM. Besides, at ATM enzyme (human) (setting [3]), the inhibition at 1 µM was 64%.

Take “N,N-dimethyl-1-(2-(trifluoromethyl)-4-(942S,6R)-2,6-dimethylmorpholino)benzo[4,5]imidazo[1,2-a]pyridin-2-yl)phenyl)piperidin-4-amine [Example 54]”: the results for the IC50 in assay [1] and in assay [2] were 193 nM and 220 nM, respectively.

Consider `C[C@@H]1CN(c2ncnc3nc4ccc(-c5ccc(N6CCC(N(C)C)CC6)cc5)nn4c23)C[C@H](C)N1C` [Example 71, N,N-dimethyl-1-(4-(4-((3 S,5R)-3,4,5-trimethylpiperazin-1-yl)pyridazino[6,1-f]purin-7-yl)phenyl)piperidin-4-amine], for which the half-inhibitory concentration (IC50) is 1240 nM in assay [1] (Homo sapiens, SW-620, 120 h) and 1800 nM in assay [2] (setting [4]).

In the case of `C[C@@H]1CN(c2cccc3nc4ccc(-c5ccc(OCCCN(C)C)c(F)c5)cn4c23)C[C@H](C)N1C` [Example 50, N,N-dimethyl-3-(2-fluoro-4-(9-((3S,5R)-3,4,5-trimethylpiperazin-1-yl)benzo[4,5]imidazo[1,2-a]pyridin-2-yl)phenoxy)propan-1-amine], the IC50 was over 1000 nM in assay [1] (Homo sapiens, SW-620, 120 h) and over 1000 nM in assay [2] (setting [4]).

Source of the values: US11547703B2, “Substituted fused heteroaromatic tricyclic compounds as kinase inhibitors and the use thereof” (IMPACT THERAPEUTICS (SHANGHAI), INC, priority 2017, dated 2023).
